pIC50: −log10 of the molar value.
Tested on: human cytomegalovirus (HCMV)
Assay: microbe, parasite or virus in culture
Format: cell-based
Conditions: Human MRCS cells, 0.01 IU per cell, virus yield at 7 days post infection, mCherry positive cells

SMILES	pIC50 (Human betaherpesvirus 5, 168 h)	pIC50
CN1CCN(c2ccc3c(c2)CN(c2ncc(Cc4ccc(N5CCOC5=O)cc4)s2)CC3)C1=O [Example 57]	6.13	–
Cc1cnc(C)n1-c1ccc2c(c1)CN(c1ncc(Cc3ccc(N4CCOCC4)cc3)s1)CC2 [Example 47]	6.10	–
COCCn1nncc1-c1ccc2c(c1)CN(c1ncc(Cc3ccc(-n4cccn4)cc3)s1)CC2 [Example 7]	5.77	–
Cc1cn(-c2ccc(Cc3cnc(N4CCc5ccc(-n6cc(C)nc6C)cc5C4)s3)cc2)c(C)n1 [Example 23]	6.15	–
O=C1CCCN1c1ccc2c(c1)CN(c1ncc(Cc3ccc(N4CCS(=O)(=O)CC4)cc3)s1)CC2 [Example 51]	6.13	–
CC(C)c1cc(Cc2cnc(N3CCc4ccc(-c5cn(C)nn5)cc4C3)s2)cc(-n2cccn2)c1 [Example 1]	4.93	–
O=C1COCCN1c1ccc2c(c1)CN(c1ncc(Cc3ccc(-n4cccn4)cc3)s1)CC2 [Example 42]	5.61	–
CN1CCCN(c2ccc3c(c2)CN(c2ncc(Cc4ccc(C5CCOCC5)cc4)s2)CC3)C1=O [Example 59]	6.14	–
c1cnn(-c2ccc(Cc3cnc(N4CCc5ccc(-n6ccnc6)cc5C4)s3)cc2)c1 [Example 9]	6.32	–
COc1cc(Cc2cnc(N3CCc4ccc(-n5cc(C)nc5C)cc4C3)s2)ccc1-n1cccn1 [Example 27]	6.46	–
c1cn(-c2ccc(Cc3cnc(N4CCc5ccc(-n6ccnc6)cc5C4)s3)cc2)cn1 [Example 17]	6.13	–
c1cnn(-c2ccc(Cc3cnc(N4CCc5ccc(N6CCOCC6)cc5C4)s3)cc2)c1 [Example 72]	6.27	–
COCCN1CCCN(c2ccc3c(c2)CN(c2ncc(Cc4ccc(-n5cccn5)cc4)s2)CC3)C1=O [Example 45]	5.75	–
c1cnn(-c2ccc(Cc3cnc(N4CCc5ccc(-c6c[nH]nn6)cc5C4)s3)cc2)c1 [Example 5]	6.09	–
O=C1OCCCN1c1ccc2c(c1)CN(c1ncc(Cc3ccc(-n4cccn4)cc3)s1)CC2 [Example 69]	5.31	–
CN1CCN(c2ccc3c(c2)CN(c2ncc(Cc4ccc(-n5cccn5)cc4)s2)CC3)CC1=O [Example 70]	5.67	–
Cn1cc(-c2ccc3c(c2)CN(c2ncc(Cc4ccc(-n5cccn5)cc4)s2)CC3)nn1 [Example 2]	5.93	–
Cc1cn(-c2ccc3c(c2)CN(c2ncc(Cc4ccc(N5CCOCC5)cc4)s2)CC3)c(C)n1 [Example 46]	6.22	–
c1cnn(-c2ccc(Cc3cnc(N4CCc5cc(-n6ccnc6)ccc5C4)s3)cc2)c1 [Example 18]	–	5.97
CN1CCN(c2ccc3c(c2)CN(c2ncc(Cc4ccc(-c5ncccn5)cc4)s2)CC3)C1=O [Example 52]	5.87	–
O=C1OCCN1c1ccc2c(c1)CN(c1ncc(Cc3ccc(-c4ncccn4)cc3)s1)CC2 [Example 29]	6.07	–
N#Cc1ccc(Cc2cnc(N3CCc4ccc(N5CCOC5=O)cc4C3)s2)cc1 [Example 30]	5.35	–
COCCn1cc(-c2ccc3c(c2)CN(c2ncc(Cc4ccc(-n5cccn5)cc4)s2)CC3)nn1 [Example 11]	5.77	–

SMILES	pIC50 (Human betaherpesvirus 5, 168 h)	pIC50
O=C1OCCN1c1ccc2c(c1)CN(c1ncc(Cc3cccc(-n4cccn4)c3)s1)CC2 [Example 28]	5.72	–
Cn1cc(-c2ccc3c(c2)CN(c2ncc(Cc4cccc(-n5cccn5)c4)s2)CC3)nn1 [Example 3]	5.72	–
Cc1cn(-c2ccc3c(c2)CN(c2ncc(Cc4cccc(-n5cccn5)c4)s2)CC3)c(C)n1 [Example 19]	5.89	–
CN1CCN(c2ccc3c(c2)CN(c2ncc(Cc4ccc(-n5cccn5)cc4)s2)CC3)C1=O [Example 26]	6.20	–
O=C1NCCN1c1ccc2c(c1)CN(c1ncc(Cc3ccc(-n4cccn4)cc3)s1)CC2 [Example 25]	6.04	–
Cc1cn(-c2ccc(Cc3cnc(N4CCc5ccc(N6CCOC6=O)cc5C4)s3)cc2)c(C)n1 [Example 44]	6.26	–
Cc1cn(-c2ccc3c(c2)CN(c2ncc(Cc4ccc(N5CCOC5=O)cc4)s2)CC3)c(C)n1 [Example 56]	6.50	–
Cc1cn(-c2ccc3c(c2)CN(c2ncc(Cc4ccc(-n5cccn5)cc4)s2)CC3)c(C)n1 [Example 14]	6.34	–
O=C1OCCN1c1cccc(Cc2cnc(N3CCc4ccc(N5CCOC5=O)cc4C3)s2)c1 [Example 40]	6.02	–
c1cc(Cc2cnc(N3CCc4ccc(-c5c[nH]nn5)cc4C3)s2)cc(-n2cccn2)c1 [Example 4]	6.12	–
CS(=O)(=O)c1cccc(Cc2cnc(N3CCc4ccc(N5CCOC5=O)cc4C3)s2)c1 [Example 34]	6.20	–
O=C1NCCCN1c1ccc2c(c1)CN(c1ncc(Cc3ccc(-n4cccn4)cc3)s1)CC2 [Example 37]	5.00	–
N#Cc1cccc(Cc2cnc(N3CCc4ccc(N5CCOC5=O)cc4C3)s2)c1 [Example 39]	5.56	–
Cc1cn(-c2ccc3c(c2)CN(c2ncc(Cc4ccc(N5CCS(=O)(=O)CC5)cc4)s2)CC3)c(C)n1 [Example 48]	6.71	–
Cc1nc(-c2ccc3c(c2)CN(c2ncc(Cc4ccc(-n5cccn5)cc4)s2)CC3)no1 [Example 6]	5.47	–
Cc1cn(-c2ccc3c(c2)CN(c2nc(Cc4cccc(-n5cccn5)c4)cs2)CC3)c(C)n1 [Example 66]	5.35	–
O=C1OCCN1c1ccc2c(c1)CN(c1ncc(Cc3cccc(N4CCS(=O)(=O)CC4)c3)s1)CC2 [Example 33]	6.04	–
O=C1OCCN1c1ccc(Cc2cnc(N3CCc4ccc(N5CCOCC5)cc4C3)s2)cc1 [Example 58]	5.95	–
Cc1cn(-c2ccc3c(c2)CN(c2ncc(Cc4ccc(-n5cccn5)cc4)s2)CC3)cn1 [Example 13]	5.98	–
O=C1OCCN1c1ccc2c(c1)CN(c1ncc(Cc3ccc(-n4cccn4)nc3)s1)CC2 [Example 41]	6.26	–
CS(=O)(=O)c1ccc(Cc2cnc(N3CCc4ccc(N5CCOC5=O)cc4C3)s2)cc1 [Example 43]	6.21	–
c1cnn(-c2ccc(Cc3cnc(N4CCc5ccc(-c6ncc[nH]6)cc5C4)s3)cc2)c1 [Example 20]	5.28	–
O=C1CN(c2ccc3c(c2)CN(c2ncc(Cc4ccc(-n5cccn5)cc4)s2)CC3)CCN1 [Example 71]	5.00	–

SMILES	pIC50 (Human betaherpesvirus 5, 168 h)	pIC50
O=C1OCCN1c1ccc2c(c1)CN(c1ncc(Cc3cncc(-n4cccn4)c3)s1)CC2 [Example 55]	5.42	–
O=C1CCCN1c1ccc2c(c1)CN(c1ncc(Cc3ccc(-c4ncccn4)cc3)s1)CC2 [Example 49]	6.29	–
O=C1OCCN1c1ccc2c(c1)CN(c1ncc(Cc3ccc(C4CCOCC4)cc3)s1)CC2 [Example 62]	6.44	–
O=C1OCCN1c1ccc(Cc2cnc(N3CCc4ccc(N5CCOC5=O)cc4C3)s2)cc1 [Example 32]	6.01	–
O=C1CCCN1c1ccc2c(c1)CN(c1ncc(Cc3ccc(N4CCOCC4)cc3)s1)CC2 [Example 50]	6.21	–
COCCn1cc(-c2ccc3c(c2)CN(c2ncc(Cc4cccc(-n5cccn5)c4)s2)CC3)nn1 [Example 12]	5.22	–
O=C1CCCN1c1ccc2c(c1)CN(c1ncc(Cc3ccc(-n4cccn4)cc3)s1)CC2 [Example 73]	6.37	–
CN1CCCN(c2ccc3c(c2)CN(c2ncc(Cc4ccc(-n5cccn5)cc4)s2)CC3)C1=O [Example 38]	5.46	–
O=C1OCCN1c1ccc2c(c1)CN(c1ncc(Cc3cccc(N4CCOCC4)c3)s1)CC2 [Example 35]	6.05	–
O=C1OCCN1c1ccc2c(c1)CN(c1ncc(Cc3ccc(N4CCS(=O)(=O)CC4)cc3)s1)CC2 [Example 36]	6.18	–
O=C1OCCN1c1ccc2c(c1)CN(c1ncc(Cc3ccc(-n4cccn4)cc3)s1)CC2 [Example 24]	6.45	–
CN1CCCN(c2ccc3c(c2)CN(c2ncc(Cc4ccc(N5CCOCC5)cc4)s2)CC3)C1=O [Example 60]	5.01	–
O=C1NCCN1c1ccc2c(c1)CN(c1ncc(Cc3ccc(-c4ncccn4)cc3)s1)CC2 [Example 53]	< 5.38	–
O=C1OCCN1c1ccc2c(c1)CN(c1ncc(Cc3ccc(N4CCOCC4)cc3)s1)CC2 [Example 31]	6.10	–
COc1ccc(Cc2cnc(N3CCc4ccc(-n5cc(C)nc5C)cc4C3)s2)cc1-n1cccn1 [Example 22]	6.51	–
CN1CCCN(c2ccc3c(c2)CN(c2ncc(Cc4ccc(S(C)(=O)=O)cc4)s2)CC3)C1=O [Example 61]	5.33	–
c1cnn(-c2ccc(Cc3cnc(N4CCc5ccc(-c6nc[nH]n6)cc5C4)s3)cc2)c1 [Example 16]	6.70	–
Cc1cn(-c2ccc3c(c2)CN(c2ncc(Cc4cncc(-n5cccn5)c4)s2)CC3)c(C)n1 [Example 67]	5.92	–
COCCn1nncc1-c1ccc2c(c1)CN(c1ncc(Cc3cccc(-n4cccn4)c3)s1)CC2 [Example 8]	5.70	–
Cc1cn(-c2ccc3c(c2)CN(c2ncc(Cc4cccc(-n5cccn5)c4)s2)CC3)cn1 [Example 21]	5.58	–
c1cnc(-c2ccc(Cc3cnc(N4CCc5ccc(N6CCOCC6)cc5C4)s3)cc2)nc1 [Example 54]	5.96	–
c1cc(Cc2cnc(N3CCc4ccc(-c5nc[nH]n5)cc4C3)s2)cc(-n2cccn2)c1 [Example 15]	5.73	–
